Test results: PubChem BioAssay (NCI)
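All cell lines were grown in 96-well plates and treated with compound for 48 hours. GI50 = concentration required for 50% inhibition of growth. TGI: concentration producing complete growth inhibition.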

Assays:
Test in all cases: NCI anticancer screen, dose series, 48 h
ACHN renal = test system: ACHN renal
HCT-116 colon = test system: HCT-116 colon
K-562 leukemia = test system: K-562 leukemia
KM12 colon = test system: KM12 colon
NCI-H23 lung = test system: NCI-H23 lung
SF-268 CNS = test system: SF-268 CNS
SF-539 CNS = test system: SF-539 CNS
SNB-19 CNS = test system: SNB-19 CNS
U251 CNS = test system: U251 CNS
HL-60(TB) leukemia = test system: HL-60(TB) leukemia

| SMILES | TGI (ACHN renal) [µM] | TGI (HCT-116 colon) [µM] | TGI (K-562 leukemia) [µM] | TGI (KM12 colon) [µM] | TGI (NCI-H23 lung) [µM] | TGI (SF-268 CNS) [µM] | TGI (SF-539 CNS) [µM] | TGI (SNB-19 CNS) [µM] | TGI (U251 CNS) [µM] | TGI (HL-60(TB) leukemia) [µM] | GI50 (ACHN renal) [µM] | GI50 (HCT-116 colon) [µM] | GI50 (K-562 leukemia) [µM] | GI50 (KM12 colon) [µM] | GI50 (NCI-H23 lung) [µM] | GI50 (SF-268 CNS) [µM] | GI50 (SF-539 CNS) [µM] | GI50 (SNB-19 CNS) [µM] | GI50 (U251 CNS) [µM] | GI50 (HL-60(TB) leukemia) [µM] |
| --- | --- | --- | --- | --- | --- | --- | --- | --- | --- | --- | --- | --- | --- | --- | --- | --- | --- | --- | --- | --- |
| CCCCCc1cc(/C=C2/N=C(c3ccc[nH]3)C=C2OC)[nH]c1C | 0.113 | < 0.0387 | 0.259 | 0.364 | 0.346 | 1.13 | 0.177 | 1.5 | 0.153 |  |  |  |  |  |  |  |  |  |  |  |
| CNC(=O)/C=C/C1=CN2C(=O)c3ccc(C)c(O)c3NC(OC)C2C1 (stereo unspecified) |  | > 4.64 | > 100 | < 0.0183 | < 0.0177 | 0.08 | < 0.0176 | 27.6 | 1.67 | 0.865 |  |  |  |  |  |  |  |  |  |  |
| CO/N=C(/C)COc1ccc2c(c1)oc(=O)c1cc(OC)ccc12 | > 100 | > 100 | > 100 | > 100 | > 100 | > 100 | > 100 | > 100 | > 100 |  | 75 | > 100 | > 100 | > 100 | > 100 | > 100 | > 100 | > 100 | > 100 |  |
| O=C(O)C1=Cc2cccc3cccc(c23)C1=O | > 100 | > 100 | > 100 | > 100 | > 100 | > 100 |  | > 100 | > 100 | > 100 |  |  |  |  |  |  |  |  |  |  |
| COC(=O)c1cc(O)ccc1O | > 100 |  | > 100 | > 100 |  | > 100 | > 100 | > 100 | > 100 | > 100 |  |  |  |  |  |  |  |  |  |  |
| CCOC(=O)C#Cc1cccc(C#CC(=O)OCC)c1 | 11.6 | 7.1 |  | 15.2 | 10.6 | 16.7 | 9.65 | 11.4 | 9.87 | 4.06 |  |  |  |  |  |  |  |  |  |  |
| CCCCCCCCCN=C(N)c1ccc(N2CCN(c3ccc(C(N)=NCCCCCCCCC)cc3)CC2)cc1 | 12.7 |  | 17 | 5.67 | 6.37 | 4.04 | 4.48 | 15.8 | 1.41 |  | 2.19 |  | 1.72 | 1.7 | 1.67 | 1.22 | 2 | 2.29 | 0.518 |  |
| CC1(C)CC[C@]23CC[C@]4(C)[C@H](CC[C@@H]5[C@@]6(C)CCCNC(C)(C)[C@@H]6CC[C@]54C)[C@H]2[C@H]1OC3 | 3.08 | 2.88 | 7 |  | 3.5 | 5.31 | 3.07 | 3.35 | 3.23 |  | 1.71 | 1.52 | 1.96 |  | 1.76 | 2.04 | 1.64 | 1.85 | 1.74 |  |
| CC(=O)OCc1nnn2c1C(OC(C)=O)CC2 (stereo unspecified) | > 100 | > 100 | > 100 | > 100 | > 100 |  | > 100 | > 100 | > 100 |  |  |  |  |  |  |  |  |  |  |  |
| CC(=O)OC(COc1ccc2c(c1)[n+]([O-])nc(N)[n+]2[O-])CN1CCCCC1 (stereo unspecified) | 39.3 | 59.2 | 38.5 | 50.4 | 47.9 |  | 39 | > 100 | 43 | 26.9 |  |  |  |  |  |  |  |  |  |  |
| CCOC(=O)CCc1c(C)c2c(OC)cc(OC)cc2oc1=O | > 100 | > 100 |  | > 100 | > 100 | > 100 | > 100 | > 100 | > 100 | > 100 |  |  |  |  |  |  |  |  |  |  |
| N#CC1=C(N)N=C(N2CCOCC2)C(C#N)C12Nc1ccccc1S2 (stereo unspecified) | 76 | > 100 | > 100 | 33.6 |  | 27.5 | 35.5 | > 100 | > 100 | > 100 | 21.8 | 35.4 | 26.7 | 15 |  | 8.05 | 18.9 | 33.8 | 27.8 | 51 |
| Cc1ccc(NC(=S)NNC(=S)Nc2ccc(C)cc2)cc1 | > 100 | > 100 |  | > 100 | > 100 | > 100 | > 100 | > 100 | > 100 |  | 9.7 | 3.81 |  | 3.63 | 5.98 | 6.05 | 5.46 | 8.36 | 5.16 |  |
| CSC1=CC(=O)c2ccccc2C1=O | 3.07 | 2.92 |  | 22.5 | 17.5 | 22.1 | 24.3 | 29.4 | 23.8 | 4.33 | 1.66 | 1.52 |  | 6.75 | 3.45 | 8.85 | 11.4 | 13.8 | 11 | 1.87 |
| COc1cc(/C=C2\CC3C4CCC5=CC(=O)CC[C@]5(C)C4CC[C@]3(C)C2=O)ccc1OCCN1CCCC1 (stereo partly specified) | 9.16 | 3.79 | 1.53 | 4.77 | 13.4 | 19.4 | 3.67 | 18.8 | 10.1 |  | 2.94 | 1.41 | 0.489 | 1.92 | 3.31 | 3.41 | 1.78 | 4.16 | 2.86 |  |
| CCCCCOC(=O)Nc1nc(=O)n(C2OC(C)C(O)C2O)cc1F (stereo unspecified) |  | > 10000 |  | > 10000 |  | > 10000 | > 10000 | > 10000 | > 10000 | > 10000 |  | > 10000 |  | > 10000 |  | > 10000 | > 10000 | > 10000 | > 10000 | 5070 |
| O=C(CCN1CCCCC1)c1csc2ccccc12 | > 100 | > 100 | > 100 | > 100 | > 100 | > 100 | > 100 | > 100 | > 100 |  |  |  |  |  |  |  |  |  |  |  |
| COC(=O)C1C(C(=O)O)C2(c3ccccc3)C(=O)C1(c1ccccc1)C(c1ccc(OC)cc1)=C2c1ccc(OC)cc1 (stereo unspecified) | > 100 | 33.6 | > 100 | 74.6 | 33.7 | 82.2 | 34 | 77.3 | > 100 |  | 36.6 | 17.3 | 28.4 | 27 | 17.5 | 25 | 17.7 | 22.4 | 36.6 |  |
